Data as given in patent US20160199434A1, “COMPOSITIONS AND METHODS FOR MODULATING DNA METHYLATION” (OHIO STATE INNOVATION FOUNDATION, priority 2013, published 2016).

Test system: human A375 melanoma cells
Assay: Tumor growth of human A375 melanoma cells implanted in SCID mice
Assay type: in vivo, mouse
Settings: 19 days after palpable tumor formation, AKB-6899 17.5 mg/kg, Docetaxel 30 mg/kg
Description: During treatment, tumor growth was determined. Animals were treated with one the following combinations: vehicle/vehicle, vehicle/AKB-6899 (17.5 mg/kg), Docetaxel (30 mg/kg)/vehicle, or Docetaxel/AKB-6899. 19 days after palpable tumor formation, the tumors in the mice receiving the vehicle/AKB-6899 combination had tumors that were 74% the size of control; the tumors in the mice receiving Docetaxel/vehicle combination had tumors that were 49% the size of control; and the tumors in the mice receiving the Docetaxel/AKB-6899 combination had tumors that were 13% the size of control.

CC(=O)O[C@@]12CO[C@@H]1C[C@H](O)[C@@]1(C)C(=O)[C@H](O)C3=C(C)[C@@H](OC(=O)[C@H](O)[C@@H](NC(=O)OC(C)(C)C)c4ccccc4)C[C@@](O)([C@@H](OC(=O)c4ccccc4)[C@H]21)C3(C)C [Docetaxel, reference compound]
tumor size relative to control: 49%
